Tests used:
Cbl-b [1] = molecular target: T1, Cbl-b (Homo sapiens, UniProt Q13191); test: Cbl-b Degradation Method A (FACS, anti-Cbl-b antibody staining); format: cell-based; settings: Cbl-b-HiBit KI Jurkat Cells, incubated at least 20 hours; for DC50: half maximal degradation, read-out: Cbl-b Degredation Method A IC50; for Dmax: Jurkat, maximum degradation observed, read-out: Cbl-b Degredation Method A Dmax (%)
T1 construct: Cbl-b-HiBit KI Jurkat Cells were purchased from Promega; host or cells: Cbl-b-HiBiT knock-in Jurkat cells
T1 sequence (Q13191 whole entry): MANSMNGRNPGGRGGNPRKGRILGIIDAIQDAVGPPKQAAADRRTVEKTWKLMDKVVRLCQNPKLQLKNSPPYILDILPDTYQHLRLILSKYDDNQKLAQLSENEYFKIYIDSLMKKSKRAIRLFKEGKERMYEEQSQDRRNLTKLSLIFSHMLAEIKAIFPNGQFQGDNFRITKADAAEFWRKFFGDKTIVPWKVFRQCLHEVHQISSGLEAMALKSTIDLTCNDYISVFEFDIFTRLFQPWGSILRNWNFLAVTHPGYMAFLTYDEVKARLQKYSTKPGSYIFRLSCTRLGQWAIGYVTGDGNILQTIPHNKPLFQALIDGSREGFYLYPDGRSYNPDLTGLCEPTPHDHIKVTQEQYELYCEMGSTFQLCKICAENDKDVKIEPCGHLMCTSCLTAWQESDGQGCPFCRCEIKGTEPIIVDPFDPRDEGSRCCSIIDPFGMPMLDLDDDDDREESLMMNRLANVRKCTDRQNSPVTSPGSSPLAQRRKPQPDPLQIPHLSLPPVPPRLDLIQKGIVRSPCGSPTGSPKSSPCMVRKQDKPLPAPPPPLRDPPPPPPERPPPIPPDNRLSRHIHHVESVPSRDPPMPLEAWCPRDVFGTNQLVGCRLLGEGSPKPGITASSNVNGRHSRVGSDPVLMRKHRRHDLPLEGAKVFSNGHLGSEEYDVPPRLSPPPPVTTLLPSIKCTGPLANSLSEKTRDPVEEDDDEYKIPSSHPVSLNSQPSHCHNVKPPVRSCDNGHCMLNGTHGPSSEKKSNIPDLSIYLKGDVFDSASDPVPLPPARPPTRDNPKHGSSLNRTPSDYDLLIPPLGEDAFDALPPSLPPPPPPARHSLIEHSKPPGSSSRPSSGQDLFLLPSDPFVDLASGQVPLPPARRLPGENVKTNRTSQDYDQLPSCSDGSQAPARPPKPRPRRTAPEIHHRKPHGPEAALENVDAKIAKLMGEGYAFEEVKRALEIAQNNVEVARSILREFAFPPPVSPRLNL
In short: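 Readout is flow cytometry of fixed, permeabilized cells immunostained for Cbl-b (primary 1:200, AF488 secondary). Cells were Cbl-b-HiBit knock-in Jurkat, exposed to compound ≥20 h at 37 °C; half-maximal degradation concentration (DC50) and maximal degradation (Dmax) calculated relative to control.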

Cbl-b [2] = molecular target: T1, Cbl-b; test: Cbl-b Degradation Method B (Nano-Glo HiBiT lytic detection); format: cell-based; settings: Cbl-b-HiBit KI Jurkat Cells, incubated at least 6-24 hours; for DC50: half maximal degradation, read-out: Cbl-b Degredation Method B IC50; for Dmax / Cbl-b Degredation Method B Dmax (%): maximum degradation observed; for Dmax: read-out: Cbl-b Degredation Method B Dmax (%)
In short: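 An 11-point, 3-fold compound dilution was applied for 6-24 hours to Jurkat cells carrying HiBiT-tagged endogenous Cbl-b. Lytic HiBiT luminescence quantified residual protein. Outputs are DC50 and Dmax relative to DMSO control.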

With `COc1c(N2CCC(O[C@H]3CC[C@H](CN4CCN(Cc5cc6c(c(C(F)(F)F)c5)CN(c5cccc([C@]7(Cc8nncn8C)C[C@@H](C#N)C7)c5)C6=O)CC4)CC3)CC2)ccc2c1CN(C1CCC(=O)NC1=O)C2=O` (stereo partly drawn) [Example 199, (1r,3r)-3-[(4-methyl-4H-1,2,4-triazol-3-yl)methyl]-3-(3-{1-oxo-6-[(4-{[(1r,4r)-4-({1-[2-(2,6-dioxopiperidin-3-yl)-4-methoxy-1-oxo-2,3-dihydro-1H-isoindol-5-yl]piperidin-4-yl}oxy)cyclohexyl]methyl}piperazin-1-yl)methyl]-4-(trifluoromethyl)-2,3-dihydro-1H-isoindol-2-yl}phenyl)cyclobutane-1-carbonitrile] as the compound, how does the DC50 (Cbl-b [1]) read?
The DC50 was less than 5 nM.

And the Dmax (Cbl-b [1])?
The Dmax was greater than 70%.

And the DC50 (Cbl-b [2])?
The DC50 was less than 5 nM.

What about the Dmax (Cbl-b [2]) of the same compound?
The Dmax was 35 to 70%.

Which results are given for `C[C@H]1CN(C[C@H]2CC[C@@H](OC3CCN(c4ccc5c(c4F)CN(C4CCC(=O)NC4=O)C5=O)CC3)CC2)CCN1Cc1cc2c(c(C(F)(F)F)c1)CN(c1cccc(C3(Cc4nncn4C)COC3)c1)C2=O` (stereo partly drawn) [Example 194, 3-[4-fluoro-1-oxo-5-(4-{[(1r,4r)-4-{[(3S)-3-methyl-4-{[2-(3-{3-[(4-methyl-4H-1,2,4-triazol-3-yl)methyl]oxetan-3-yl}phenyl)-3-oxo-7-(trifluoromethyl)-2,3-dihydro-1H-isoindol-5-yl]methyl}piperazin-1-yl]methyl}cyclohexyl]oxy}piperidin-1-yl)-2,3-dihydro-1H-isoindol-2-yl]piperidine-2,6-dione]?
DC50 (Cbl-b [1]): < 5 nM; Dmax (Cbl-b [1]): > 70%; DC50 (Cbl-b [2]): < 5 nM; Dmax (Cbl-b [2]): 35 to 70%

How did the DC50 (Cbl-b [1]) turn out when `Cn1cnnc1CC1(c2cccc(N3Cc4c(cc(CN5CCCC(CN6CCN(c7ccc8c(c7)C(=O)N(C7CCC(=O)NC7=O)C8=O)CC6)C5)cc4C(F)(F)F)C3=O)c2)COC1` (stereo not drawn) [Example 76, 2-(2,6-dioxopiperidin-3-yl)-5-{4-[(1-{[2-(3-{3-[(4-methyl-4H-1,2,4-triazol-3-yl)methyl]oxetan-3-yl}phenyl)-3-oxo-7-(trifluoromethyl)-2,3-dihydro-1H-isoindol-5-yl]methyl}piperidin-3-yl)methyl]piperazin-1-yl}-2,3-dihydro-1H-isoindole-1,3-dione] was run?
The DC50 was greater than 500 nM.

And the DC50 (Cbl-b [2])?
Its DC50 is greater than 500 nM.

Which DC50 (Cbl-b [1]) does the source give for `CC(C)n1c(=O)n(C2CCC(=O)NC2=O)c2cccc(N3CCC(CN4CCC5(CC4)CN(Cc4ccc(-c6cc7c(c(C(F)(F)F)c6)CN(c6cccc(C8(Cc9nncn9C)CC(C#N)C8)c6)C7=O)cc4)C5)CC3)c21` (stereo not drawn) [Example 283, 3-[3-[6-[4-[[7-[[1-[1-(2,6-dioxo-3-piperidyl)-3-isopropyl-2-oxo-benzimidazol-4-yl]-4-piperidyl]methyl]-2,7-diazaspiro[3.5]nonan-2-yl]methyl]phenyl]-1-oxo-4-(trifluoromethyl)isoindolin-2-yl]phenyl]-3-[(4-methyl-1,2,4-triazol-3-yl)methyl]cyclobutanecarbonitrile] here?
Its DC50 is 50 to 500 nM.

And the Dmax (Cbl-b [1])?
The Dmax was 35 to 70%.

What about the DC50 (Cbl-b [2]) of the same compound?
The DC50 was 5 to 50 nM.

And the “Cbl-b Degredation Method B Dmax (%)” value (Cbl-b [2])?
The value was “C (C ≤ 35)”.

Which DC50 (Cbl-b [1]) does the source give for `Cn1cnnc1C[C@]1(c2cccc(N3Cc4c(cc(CN5CCN(C[C@H]6CC[C@H](OC7CCN(c8cccc9c8nc(OC(F)F)n9C8CCC(=O)NC8=O)CC7)CC6)CC5(C)C)cc4C(F)(F)F)C3=O)c2)C[C@H](C#N)C1` (stereo partly drawn) [Example 325, (1r,3r)-3-(3-{6-[(2,2-dimethyl-4-{[(1r,4r)-4-({1-[2-(difluoromethoxy)-1-(2,6-dioxopiperidin-3-yl)-1H-1,3-benzodiazol-4-yl]piperidin-4-yl}oxy)cyclohexyl]methyl}piperazin-1-yl)methyl]-1-oxo-4-(trifluoromethyl)-2,3-dihydro-1H-isoindol-2-yl}phenyl)-3-[(4-methyl-4H-1,2,4-triazol-3-yl)methyl]cyclobutane-1-carbonitrile] here?
Its DC50 is 50 to 500 nM.

What about the Dmax (Cbl-b [1]) of the same compound?
Its Dmax is 35 to 70%.

And the DC50 (Cbl-b [2])?
Its DC50 is 5 to 50 nM.

What about the “Cbl-b Degredation Method B Dmax (%)” value (Cbl-b [2]) of the same compound?
Its value is “C (C ≤ 35)”.

`Cn1cnnc1CC1(c2cccc(NC(=O)c3cc(CN4CCC[C@H](CN5CCC(CN6CCN(c7ccc8c(c7)C(=O)N(C7CCC(=O)NC7=O)C8=O)CC6)CC5)C4)nc(C4CC4)n3)c2)COC1` (stereo partly drawn) [Example 19, 2-cyclopropyl-6-[[(3R)-3-[[4-[[4-[2-(2,6-dioxo-3-piperidyl)-1,3-dioxo-isoindolin-5-yl]piperazin-1-yl]methyl]-1-piperidyl]methyl]-1-piperidyl]methyl]-N-[3-[3-[(4-methyl-1,2,4-triazol-3-yl)methyl]oxetan-3-yl]phenyl]pyrimidine-4-carboxamide] was tested. Which DC50 (Cbl-b [1]) did it give?
Its DC50 is 50 to 500 nM.

And the DC50 (Cbl-b [2])?
Its DC50 is less than 5 nM.

What about the Dmax (Cbl-b [2]) of the same compound?
Its Dmax is less than 35%.

`Cn1cnnc1CC1(c2cccc(N3Cc4c(cc(CN5CCC(CN6CCC(C7CCN(c8ccc9c(c8)C(=O)N(C8CCC(=O)NC8=O)C9=O)CC7)CC6)CC5)cc4C(F)(F)F)C3=O)c2)COC1` (stereo not drawn) [Example 77, 2-(2,6-dioxopiperidin-3-yl)-5-{1′-[(1-{[2-(3-{3-[(4-methyl-4H-1,2,4-triazol-3-yl)methyl]oxetan-3-yl}phenyl)-3-oxo-7-(trifluoromethyl)-2,3-dihydro-1H-isoindol-5-yl]methyl}piperidin-4-yl)methyl]-[4,4′-bipiperidin]-1-yl}-2,3-dihydro-1H-isoindole-1,3-dione] was tested. Which DC50 (Cbl-b [1]) did it give?
Its DC50 is greater than 500 nM.

And the DC50 (Cbl-b [2])?
The DC50 was greater than 500 nM.

Which results are given for `COc1c(N2CCC(CN3CCC4(CC3)CN(c3cc5c(c(C(F)(F)F)c3)CN(c3cccc(C6(Cc7nncn7C)COC6)c3)C5=O)C4)CC2)ccc2c1CN(C1CCC(=O)NC1=O)C2=O` (stereo not drawn) [Example 8, 3-{4-methoxy-5-[4-({2-[2-(3-{3-[(4-methyl-4H-1,2,4-triazol-3-yl)methyl]oxetan-3-yl}phenyl)-3-oxo-7-(trifluoromethyl)-2,3-dihydro-1H-isoindol-5-yl]-2,7-diazaspiro [3.5]nonan-7-yl}methyl)piperidin-1-yl]-1-oxo-2,3-dihydro-1H-isoindol-2-yl}piperidine-2,6-dione]?
DC50 (Cbl-b [1]): 5 to 50 nM; Dmax (Cbl-b [1]): > 70%; DC50 (Cbl-b [2]): < 5 nM; Dmax (Cbl-b [2]): 35 to 70%

Which DC50 (Cbl-b [1]) does the source give for `Cn1cnnc1CC1(c2cccc(N3Cc4c(cc(N5CC6(CCN(c7cc8c(cc7F)C(=O)N(C7CCC(=O)NC7=O)C8=O)CC6)C5)cc4C(F)(F)F)C3=O)c2)COC1` (stereo not drawn) [Example 116, 2-(2,6-dioxopiperidin-3-yl)-5-fluoro-6-{2-[2-(3-{3-[(4-methyl-4H-1,2,4-triazol-3-yl)methyl]oxetan-3-yl}phenyl)-3-oxo-7-(trifluoromethyl)-2,3-dihydro-1H-isoindol-5-yl]-2,7-diazaspiro[3.5]nonan-7-yl}-2,3-dihydro-1H-isoindole-1,3-dione] here?
The DC50 was greater than 500 nM.

What about the DC50 (Cbl-b [2]) of the same compound?
Its DC50 is greater than 500 nM.

For `CC1CC(N2CCC(CC3CCN(c4ccc5c(c4)C(=O)N(C4CCC(=O)NC4=O)C5=O)CC3)CC2)CN(Cc2cc3c(c(C(F)(F)F)c2)CN(c2cccc(C4(Cc5nncn5C)COC4)c2)C3=O)C1` (stereo not drawn) [Example 95, 2-(2,6-dioxopiperidin-3-yl)-5-{4-[(5′-methyl-1′-{[2-(3-{3-[(4-methyl-4H-1,2,4-triazol-3-yl)methyl]oxetan-3-yl}phenyl)-3-oxo-7-(trifluoromethyl)-2,3-dihydro-1H-isoindol-5-yl]methyl}-[1,3′-bipiperidin]-4-yl)methyl]piperidin-1-yl}-2,3-dihydro-1H-isoindole-1,3-dione], which DC50 (Cbl-b [1]) is on record?
Its DC50 is 50 to 500 nM.

What about the DC50 (Cbl-b [2]) of the same compound?
Its DC50 is greater than 500 nM.

Which results are given for `Cc1cc(N2CCC(O[C@H]3CC[C@H](CN4CCC5(CCN(c6cc7c(c(C(F)(F)F)c6)CN(c6cccc([C@]8(Cc9nncn9C)C[C@@H](C#N)C8)c6)C7=O)C5)C4)CC3)CC2)c(F)c2c1C(=O)N(C1CCC(=O)NC1=O)C2` (stereo partly drawn) [Example 188, (1r,3r)-3-[(4-methyl-4H-1,2,4-triazol-3-yl)methyl]-3-{3-[1-oxo-6-(7-{[(1r,4r)-4-({1-[2-(2,6-dioxopiperidin-3-yl)-4-fluoro-7-methyl-1-oxo-2,3-dihydro-1H-isoindol-5-yl]piperidin-4-yl}oxy)cyclohexyl]methyl}-2,7-diazaspiro[4.4]nonan-2-yl)-4-(trifluoromethyl)-2,3-dihydro-1H-isoindol-2-yl]phenyl}cyclobutane-1-carbonitrile]?
Dmax (Cbl-b [1]): 35 to 70%; DC50 (Cbl-b [2]): < 5 nM; Dmax (Cbl-b [2]): 35 to 70%

Which DC50 (Cbl-b [1]) does the source give for `COc1c(N2CCC(O[C@H]3CC[C@@H](CN4CCN(C[C@H]5CCCN(Cc6cc7c(c(C(F)(F)F)c6)CN(c6cccc(C8(Cc9nncn9C)COC8)c6)C7=O)C5)CC4)CC3)CC2)ccc2c1CN(C1CCC(=O)NC1=O)C2=O` (stereo partly drawn) [Example 163, 3-[4-methoxy-1-oxo-5-(4-{[(1r,4r)-4-[(4-{[(3S)-1-{[2-(3-{3-[(4-methyl-4H-1,2,4-triazol-3-yl)methyl]oxetan-3-yl}phenyl)-3-oxo-7-(trifluoromethyl)-2,3-dihydro-1H-isoindol-5-yl]methyl}piperidin-3-yl]methyl}piperazin-1-yl)methyl]cyclohexyl]oxy}piperidin-1-yl)-2,3-dihydro-1H-isoindol-2-yl]piperidine-2,6-dione] here?
The DC50 was less than 5 nM.

And the Dmax (Cbl-b [1])?
The Dmax was greater than 70%.

And the DC50 (Cbl-b [2])?
Its DC50 is less than 5 nM.

And the Dmax (Cbl-b [2])?
The Dmax was greater than 70%.

How did the DC50 (Cbl-b [1]) turn out when `Cn1cnnc1CC1(c2cccc(N3Cc4c(cc(N5CC6(CCN(CC7CCN(c8ccc9c(c8Cl)CN(C8CCC(=O)NC8=O)C9=O)CC7)CC6)C5)cc4C(F)(F)F)C3=O)c2)COC1` (stereo not drawn) [Example 4, 3-{4-chloro-5-[4-({2-[2-(3-{3-[(4-methyl-4H-1,2,4-triazol-3-yl)methyl]oxetan-3-yl}phenyl)-3-oxo-7-(trifluoromethyl)-2,3-dihydro-1H-isoindol-5-yl]-2,7-diazaspiro[3.5]nonan-7-yl}methyl)piperidin-1-yl]-1-oxo-2,3-dihydro-1H-isoindol-2-yl}piperidine-2,6-dione] was run?
Its DC50 is less than 5 nM.

What about the Dmax (Cbl-b [1]) of the same compound?
Its Dmax is 35 to 70%.

What about the DC50 (Cbl-b [2]) of the same compound?
The DC50 was less than 5 nM.

What about the Dmax (Cbl-b [2]) of the same compound?
Its Dmax is 35 to 70%.

— patent US20260184710A1, “CASITAS B-LINEAGE LYMPHOMA PROTOONCOGENE B (CBL-B) DEGRADING COMPOUNDS AND ASSOCIATED METHODS OF USE” (Arvinas Operations, Inc., priority 2022, published 2026)
